The test system of one assay is VEGF. Nature of the assay: VEGF mRNA expression by Real Time PCR in OA synovial fibroblast cells. Type of assay: cell-based, human. The conditions noted are these: increasing concentrations: Coll2-1 (0.45 and 4.5 nmol) or Coll2-1NO2 (4 and 40 pmol), 24 hours. As for the experimental part:
1.3 Treatment of synovial fibroblast cells. Cells were seeded into a six-well plate at the density of 2×10^5 cells/well in 2 ml of CM. When the cells reached confluence, the CM was replaced with 1% serum medium for 24 h to keep the cells quiescent. Cells were incubated for 24 hours with or without peptides Coll2-1 (^108HRGYPGLDG^116; 0.45 and 4.5 nmol) or Coll2-1NO2 (^108HRGYPGLDG-NO2^116; 4 and 40 pmol) at a range of concentrations found in the blood of osteoarthritic patients.
1.4 RNA extraction and Real Time Reverse Transcriptase-Polymerase Chain Reaction (RT PCR). Total RNA were extracted using the RNeasy Mini Kit (Qiagen, Netherlands) and were reverse transcribed with SuperScript III Reverse Transcriptase (Invitrogen, Belgium) according to the manufacturer's instructions. The cDNAs were quantified by real-time quantitative PCR using the Rotor Gene instrument (Qiagen, Venlo, Netherlands) and the SYBR Premix Ex Taq kit (Takara, Verviers, Belgium). The level of gene expression was determined by interpolation with a standard curve. To standardize mRNA levels, HPRT, a house keeping gene, was amplified as an internal control. […]
In general terms: Real-time PCR tracks product formation cycle by cycle.

Another assay has as its system NF-κB. Kind of assay: NF-κB activation, Western blotting of phospho-p65 and phospho-IκBα. Conditions: in the presence of Coll2-1. Format: cell-based. As for the experimental part:
Western blotting. Cells were collected at 4° C. and lysed on ice in 50 μl of buffer (25 mM Hepes, 150 mM NaCl, 0.5% Triton X-100, 10% glycerol, and 1 mM dithiothreitol) containing protease and phosphatase inhibitors. After incubation at 4° C. for 30 minutes, lysates were then centrifugated at 14,000 g for 30 minutes at 4° C. to remove insoluble debris. Protein concentrations were determined using BCA assay. Total protein extracts (10 μg) were fractioned by electrophoresis on a polyacrylamide gel (10%) and transferred onto a PVDF membrane. Membrane were blocked for 1 h in TBS-Tween containing 2% bovine serum albumin (phosphor-NF-κB p65 and phospho-IκBα). Membranes were then incubated overnight at 4° C. with primary antibodies. Anti-rabbit phospho-NF-κB p65 (1:1000 dilution), anti-rabbit phospho-IκBα (1:1000 dilution) were used. Horse-radish peroxidase (HRP)-linked anti-rabbit IgG antibody (1:2000 dilution) was used as secondary antibody.
(In general: A western blot detects proteins with antibodies after separation by electrophoresis.)

Assay [1] has as its system OA synovial fibroblast cells. Kind of assay: Intracellular GSH assay in OA synovial fibroblast cells. Format: cell-based, human. The conditions noted are these: Coll2-1 at 0.45 and 4.5 nmol, 24 hours. As for the experimental part:
1.1 Patients. Synovial tissue samples were obtained from 10 patients (8 women, 2 man; mean age 70 +/−6 years) with osteoarthritis (OA) of the knee at the time of total knee joint replacement surgery. All the subjects provided their informed consent.
1.2 Isolation and culture of synovial cells. Synovium biopsies were digested is with collagenase from Clostridium histolyticum, Type IA (1 mg/ml) (Sigma-Aldrich, Saint-Louis, USA) and 0.25% trypsin (Sigma Aldrich, Saint Louis, USA) with 0.68 mM EDTA in Tris buffer 0.1M, pH 7.4 in complete medium (CM) (DMEM (Dulbecco's Modified Eagle's Medium) Low Glucose supplemented with 10 mM HEPES, 100 U/ml penicillin, 100 μg/ml streptomycin, 2 mM glutamine and 10% fetal calf serum (Lonza, Verviers, Belgium)) for 1 hour at 37° C. The cells suspensions were passed through a 70-μm filter to remove any undigested tissue. The filtered cells suspensions were then collected by centrifugation at 800 g and were cultured in culture flasks. After 24 hours, medium was changed to eliminate non adherent cells. Synovial fibroblasts cells (SFC) were used after three passages. […]
1.6 GSH assay. Levels of intracellular GSH were assessed by monoclorobimane staining. […] The fluorescence intensities were measured at […] using excitation and emission wavelengths of 380 and 485 nm, respectively. The intracellular GSH level was expressed as arbitrary units of fluorescence intensity.

On to HRGYPGLDG [Coll2-1], for which the VEGF expression entry in the assay on VEGF is reported as “tended to increase”. Also, in the assay on NF-κB, the IκBα degradation entry is “induced” and the “phosphorylation of p65 NF-κB subunit” value is given as “observed the phosphorylation”. For the same sequence, the “intracellular level of GSH” value in assay [1] is recorded as “significant decrease”.

The record behind these values is patent US20170320939A1, “COLL2-1 PEPTIDE AND ITS NITRATED FORM AS THERAPEUTIC TARGETS FOR OSTEOARTHRITIS TREATMENT” (Université de Liège, priority 2014, published 2017).
